{"source": "paper PMC10046369", "about": "“Low-Affinity/High-Selectivity Dopamine Transport Inhibition Sufficient to Rescue Cognitive Functions in the Aging Rat” (Biomolecules, 2023)", "experiment_in_all_cases": "biochemical", "design_in_all_cases": "KINOMEscan competition binding panel, per cent of control", "details_in_all_cases": "read-out: %Ctrl @ 2800nM", "key": {"PDGFRB": {"target": "PDGFRB (Homo sapiens, UniProt P09619)", "how_it_was_run": "(§1)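 Values are expressed as percent of control, calculated as ((test − positive control)/(negative control − positive control)) × 100, so lower numbers mean stronger hits. Binding was measured by KINOMEscan competition assay in a 450-kinase human panel including disease mutants, using the contractor's validated protocol.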"}, "DAPK1": {"target": "DAPK1 (Homo sapiens, UniProt P53355)", "sequence (P53355 whole entry)": "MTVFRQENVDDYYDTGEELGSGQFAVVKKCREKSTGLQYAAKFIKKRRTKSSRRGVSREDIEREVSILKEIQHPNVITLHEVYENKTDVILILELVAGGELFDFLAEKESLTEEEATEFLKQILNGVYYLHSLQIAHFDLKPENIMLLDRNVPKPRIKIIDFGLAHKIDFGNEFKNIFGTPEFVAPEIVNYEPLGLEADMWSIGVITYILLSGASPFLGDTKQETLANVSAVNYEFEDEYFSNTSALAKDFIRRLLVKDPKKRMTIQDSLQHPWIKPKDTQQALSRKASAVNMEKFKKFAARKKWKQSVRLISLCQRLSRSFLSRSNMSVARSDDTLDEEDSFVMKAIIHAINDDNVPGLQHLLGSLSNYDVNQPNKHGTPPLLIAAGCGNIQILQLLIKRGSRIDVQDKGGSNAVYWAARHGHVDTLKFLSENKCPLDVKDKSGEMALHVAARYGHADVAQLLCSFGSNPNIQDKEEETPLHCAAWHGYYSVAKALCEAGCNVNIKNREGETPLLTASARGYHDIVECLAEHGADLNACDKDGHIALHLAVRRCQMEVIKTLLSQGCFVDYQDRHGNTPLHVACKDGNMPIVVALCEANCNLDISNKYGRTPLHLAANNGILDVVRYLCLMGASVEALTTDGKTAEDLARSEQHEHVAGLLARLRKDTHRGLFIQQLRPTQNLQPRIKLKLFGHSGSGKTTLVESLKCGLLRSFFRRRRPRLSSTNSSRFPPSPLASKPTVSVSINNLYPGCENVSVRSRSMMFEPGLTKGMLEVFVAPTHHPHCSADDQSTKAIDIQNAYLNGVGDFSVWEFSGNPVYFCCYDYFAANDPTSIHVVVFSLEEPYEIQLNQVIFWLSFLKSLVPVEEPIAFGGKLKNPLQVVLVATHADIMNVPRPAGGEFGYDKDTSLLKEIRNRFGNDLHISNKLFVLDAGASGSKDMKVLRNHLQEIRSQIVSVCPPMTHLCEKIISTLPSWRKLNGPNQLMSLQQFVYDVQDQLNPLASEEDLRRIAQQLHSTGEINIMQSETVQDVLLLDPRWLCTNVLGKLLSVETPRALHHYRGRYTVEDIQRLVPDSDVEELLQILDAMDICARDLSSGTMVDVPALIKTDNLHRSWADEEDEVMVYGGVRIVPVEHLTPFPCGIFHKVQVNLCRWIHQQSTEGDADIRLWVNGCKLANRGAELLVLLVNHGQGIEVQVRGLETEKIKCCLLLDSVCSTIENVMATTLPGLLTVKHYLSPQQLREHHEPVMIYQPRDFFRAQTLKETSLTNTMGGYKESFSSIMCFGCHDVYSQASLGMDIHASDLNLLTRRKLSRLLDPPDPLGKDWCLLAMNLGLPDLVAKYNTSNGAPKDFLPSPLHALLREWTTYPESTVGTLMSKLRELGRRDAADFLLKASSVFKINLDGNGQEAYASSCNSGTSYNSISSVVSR", "how_it_was_run": "as §1"}, "HCK": {"target": "HCK (Homo sapiens, UniProt P08631)", "sequence (P08631 whole entry)": "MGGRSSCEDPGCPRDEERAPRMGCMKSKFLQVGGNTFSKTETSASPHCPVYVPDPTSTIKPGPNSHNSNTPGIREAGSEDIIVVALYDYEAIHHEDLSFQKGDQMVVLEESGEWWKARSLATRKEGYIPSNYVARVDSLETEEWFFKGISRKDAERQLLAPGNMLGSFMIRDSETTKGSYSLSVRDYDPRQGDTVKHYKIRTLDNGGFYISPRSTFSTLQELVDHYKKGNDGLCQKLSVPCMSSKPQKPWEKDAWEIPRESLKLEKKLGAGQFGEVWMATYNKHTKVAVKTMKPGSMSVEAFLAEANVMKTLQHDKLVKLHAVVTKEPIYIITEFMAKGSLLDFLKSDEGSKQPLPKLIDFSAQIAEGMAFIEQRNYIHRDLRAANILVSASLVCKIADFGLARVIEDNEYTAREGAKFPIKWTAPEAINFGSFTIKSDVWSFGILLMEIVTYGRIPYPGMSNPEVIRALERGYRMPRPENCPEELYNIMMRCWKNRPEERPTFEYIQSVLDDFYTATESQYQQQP", "how_it_was_run": "as §1"}, "MEK1": {"target": "T1, MEK1 (Homo sapiens, UniProt Q02750)", "T1 construct": "gene MAP2K1", "how_it_was_run": "as §1"}, "TNIK": {"target": "TNIK (Homo sapiens, UniProt Q9UKE5)", "how_it_was_run": "as §1"}, "SNRK": {"target": "SNRK (Homo sapiens, UniProt Q9NRH2)", "how_it_was_run": "as §1"}, "CDK7": {"target": "CDK7 (Homo sapiens, UniProt P50613)", "sequence (P50613 whole entry)": "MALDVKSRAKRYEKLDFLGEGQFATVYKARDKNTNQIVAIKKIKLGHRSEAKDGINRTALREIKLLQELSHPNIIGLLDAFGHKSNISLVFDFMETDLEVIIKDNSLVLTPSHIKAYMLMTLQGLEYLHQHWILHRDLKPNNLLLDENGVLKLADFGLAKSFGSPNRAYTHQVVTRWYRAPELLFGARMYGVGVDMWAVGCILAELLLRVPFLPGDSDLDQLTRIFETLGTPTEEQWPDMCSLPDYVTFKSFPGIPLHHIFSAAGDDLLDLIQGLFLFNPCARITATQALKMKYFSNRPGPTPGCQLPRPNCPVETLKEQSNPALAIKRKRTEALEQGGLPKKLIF", "how_it_was_run": "as §1"}, "MAP4K5": {"target": "MAP4K5 (Homo sapiens, UniProt Q9Y4K4)", "sequence (Q9Y4K4 whole entry)": "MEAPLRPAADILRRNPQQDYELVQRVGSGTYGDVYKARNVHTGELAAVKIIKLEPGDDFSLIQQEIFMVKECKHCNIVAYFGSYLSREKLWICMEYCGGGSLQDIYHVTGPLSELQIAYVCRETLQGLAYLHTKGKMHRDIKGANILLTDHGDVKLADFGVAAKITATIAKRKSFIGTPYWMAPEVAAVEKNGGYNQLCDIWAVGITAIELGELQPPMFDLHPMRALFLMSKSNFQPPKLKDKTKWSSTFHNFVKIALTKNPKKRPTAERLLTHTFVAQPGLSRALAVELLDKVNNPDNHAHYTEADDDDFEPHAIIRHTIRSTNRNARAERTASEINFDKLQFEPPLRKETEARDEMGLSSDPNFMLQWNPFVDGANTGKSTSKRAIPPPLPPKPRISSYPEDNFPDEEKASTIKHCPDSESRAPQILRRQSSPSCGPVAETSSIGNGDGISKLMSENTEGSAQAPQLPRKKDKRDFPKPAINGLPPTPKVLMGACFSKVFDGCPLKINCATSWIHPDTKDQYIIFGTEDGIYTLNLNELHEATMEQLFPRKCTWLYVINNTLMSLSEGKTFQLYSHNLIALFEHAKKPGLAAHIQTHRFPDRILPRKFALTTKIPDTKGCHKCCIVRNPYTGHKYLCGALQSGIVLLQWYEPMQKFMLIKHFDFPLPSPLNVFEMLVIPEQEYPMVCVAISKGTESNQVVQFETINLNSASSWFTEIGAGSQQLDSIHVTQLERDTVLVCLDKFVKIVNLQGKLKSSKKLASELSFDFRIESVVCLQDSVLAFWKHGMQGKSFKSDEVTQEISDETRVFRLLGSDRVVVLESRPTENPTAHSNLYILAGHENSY", "how_it_was_run": "as §1"}, "[1]": {"target": "T2, ABL1(E255K)-phosphorylated (Homo sapiens, UniProt P00519, E255K)", "T2 construct": "phosphorylated", "how_it_was_run": "as §1"}, "AAK1": {"target": "AAK1 (Homo sapiens, UniProt Q2M2I8)", "how_it_was_run": "as §1"}, "ERK8": {"target": "T3, ERK8 (Homo sapiens, UniProt Q8TD08)", "T3 construct": "gene MAPK15", "how_it_was_run": "as §1"}, "[2]": {"target": "T4, RPS6KA5(Kin.Dom.2-C-terminal) (Homo sapiens, UniProt O75582)", "T4 construct": "Kin.Dom.2-C-terminal", "how_it_was_run": "as §1"}, "BUB1": {"target": "BUB1 (Homo sapiens, UniProt O43683)", "how_it_was_run": "as §1"}, "[3]": {"target": "T5, JAK1(JH1domain-catalytic) (Homo sapiens, UniProt P23458)", "T5 construct": "JH1domain-catalytic", "how_it_was_run": "as §1"}, "GRK4": {"target": "GRK4 (Homo sapiens, UniProt P32298)", "how_it_was_run": "as §1"}, "JNK3": {"target": "T6, JNK3 (Homo sapiens, UniProt P53779)", "T6 construct": "gene MAPK10", "how_it_was_run": "as §1"}, "PAK4": {"target": "PAK4 (Homo sapiens, UniProt O96013)", "how_it_was_run": "as §1"}, "IGF1R": {"target": "IGF1R (Homo sapiens, UniProt P08069)", "how_it_was_run": "as §1"}, "LRRK2(G2019S)": {"target": "LRRK2(G2019S) (Homo sapiens, UniProt Q5S007, G2019S)", "how_it_was_run": "as §1"}, "[4]": {"target": "T7, RSK3(Kin.Dom.2-C-terminal) (Homo sapiens, UniProt Q15349)", "T7 construct": "gene RPS6KA2; Kin.Dom.2-C-terminal", "how_it_was_run": "as §1"}, "NEK10": {"target": "NEK10 (Homo sapiens, UniProt Q6ZWH5)", "how_it_was_run": "as §1"}, "CAMK1": {"target": "CAMK1 (Homo sapiens, UniProt Q14012)", "sequence (Q14012 whole entry)": "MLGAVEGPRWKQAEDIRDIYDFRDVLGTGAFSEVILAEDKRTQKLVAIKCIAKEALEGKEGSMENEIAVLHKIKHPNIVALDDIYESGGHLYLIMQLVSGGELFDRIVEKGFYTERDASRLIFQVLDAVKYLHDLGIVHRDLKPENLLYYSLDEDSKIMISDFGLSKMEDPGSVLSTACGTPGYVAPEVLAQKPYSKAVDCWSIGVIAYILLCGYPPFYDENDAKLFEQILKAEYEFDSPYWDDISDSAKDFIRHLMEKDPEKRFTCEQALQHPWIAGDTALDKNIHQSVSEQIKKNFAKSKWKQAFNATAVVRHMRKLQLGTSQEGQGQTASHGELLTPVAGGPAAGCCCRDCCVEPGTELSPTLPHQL", "how_it_was_run": "as §1"}, "FES": {"target": "FES (Homo sapiens, UniProt P07332)", "how_it_was_run": "as §1"}, "PAK1": {"target": "PAK1 (Homo sapiens, UniProt Q13153)", "sequence (Q13153 whole entry)": "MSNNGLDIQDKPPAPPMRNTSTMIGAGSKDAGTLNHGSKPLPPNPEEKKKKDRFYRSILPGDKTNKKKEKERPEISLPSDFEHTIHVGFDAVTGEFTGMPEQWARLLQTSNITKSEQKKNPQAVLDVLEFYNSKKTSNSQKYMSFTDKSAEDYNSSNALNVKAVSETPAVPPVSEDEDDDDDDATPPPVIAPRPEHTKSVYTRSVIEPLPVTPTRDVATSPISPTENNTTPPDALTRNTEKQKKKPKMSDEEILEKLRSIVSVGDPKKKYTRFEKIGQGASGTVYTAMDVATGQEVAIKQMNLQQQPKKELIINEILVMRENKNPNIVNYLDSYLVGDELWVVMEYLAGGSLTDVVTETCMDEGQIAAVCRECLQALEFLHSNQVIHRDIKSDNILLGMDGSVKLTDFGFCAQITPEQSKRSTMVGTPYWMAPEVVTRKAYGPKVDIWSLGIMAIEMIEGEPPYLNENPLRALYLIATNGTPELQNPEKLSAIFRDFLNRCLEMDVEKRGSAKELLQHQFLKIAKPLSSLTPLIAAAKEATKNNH", "how_it_was_run": "as §1"}, "CHEK2": {"target": "CHEK2 (Homo sapiens, UniProt O96017)", "how_it_was_run": "as §1"}, "SRMS": {"target": "SRMS (Homo sapiens, UniProt Q9H3Y6)", "sequence (Q9H3Y6 whole entry)": "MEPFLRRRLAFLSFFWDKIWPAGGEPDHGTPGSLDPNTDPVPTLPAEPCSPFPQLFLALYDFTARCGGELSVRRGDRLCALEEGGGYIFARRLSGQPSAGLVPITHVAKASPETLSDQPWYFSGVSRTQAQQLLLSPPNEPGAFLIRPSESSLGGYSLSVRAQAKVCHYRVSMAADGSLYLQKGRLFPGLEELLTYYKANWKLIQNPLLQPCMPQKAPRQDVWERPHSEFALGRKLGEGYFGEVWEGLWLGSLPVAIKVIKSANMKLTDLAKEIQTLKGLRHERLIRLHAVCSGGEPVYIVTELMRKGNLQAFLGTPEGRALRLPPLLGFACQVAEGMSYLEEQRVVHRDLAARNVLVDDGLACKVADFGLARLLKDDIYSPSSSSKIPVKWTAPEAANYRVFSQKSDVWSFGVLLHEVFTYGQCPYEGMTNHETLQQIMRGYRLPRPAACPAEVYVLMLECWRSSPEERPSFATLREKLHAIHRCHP", "how_it_was_run": "as §1"}}, "data": [{"smiles": "[O-][S@@+](Cc1cncs1)C(c1ccccc1)c1ccccc1", "note": "[S-CE-123, (S)-5-((Benzhydrylsulfinyl)Methyl)Thiazole]", "values": [{"measurement": "remaining binding at 2.8 µM", "setting": "PDGFRB", "value": 99, "unit": "%"}, {"measurement": "remaining binding at 2.8 µM", "setting": "DAPK1", "value": 91, "unit": "%"}, {"measurement": "remaining binding at 2.8 µM", "setting": "HCK", "value": 99, "unit": "%"}, {"measurement": "remaining binding at 2.8 µM", "setting": "MEK1", "value": 94, "unit": "%"}, {"measurement": "remaining binding at 2.8 µM", "setting": "TNIK", "value": 89, "unit": "%"}, {"measurement": "remaining binding at 2.8 µM", "setting": "SNRK", "value": 98, "unit": "%"}, {"measurement": "remaining binding at 2.8 µM", "setting": "CDK7", "value": 70, "unit": "%"}, {"measurement": "remaining binding at 2.8 µM", "setting": "MAP4K5", "value": 95, "unit": "%"}, {"measurement": "remaining binding at 2.8 µM", "setting": "[1]", "value": 73, "unit": "%"}, {"measurement": "remaining binding at 2.8 µM", "setting": "AAK1", "value": 88, "unit": "%"}, {"measurement": "remaining binding at 2.8 µM", "setting": "ERK8", "value": 100, "unit": "%"}, {"measurement": "remaining binding at 2.8 µM", "setting": "[2]", "value": 85, "unit": "%"}, {"measurement": "remaining binding at 2.8 µM", "setting": "BUB1", "value": 100, "unit": "%"}, {"measurement": "remaining binding at 2.8 µM", "setting": "[3]", "value": 93, "unit": "%"}, {"measurement": "remaining binding at 2.8 µM", "setting": "GRK4", "value": 73, "unit": "%"}, {"measurement": "remaining binding at 2.8 µM", "setting": "JNK3", "value": 74, "unit": "%"}, {"measurement": "remaining binding at 2.8 µM", "setting": "PAK4", "value": 98, "unit": "%"}, {"measurement": "remaining binding at 2.8 µM", "setting": "IGF1R", "value": 94, "unit": "%"}, {"measurement": "remaining binding at 2.8 µM", "setting": "LRRK2(G2019S)", "value": 96, "unit": "%"}, {"measurement": "remaining binding at 2.8 µM", "setting": "[4]", "value": 87, "unit": "%"}, {"measurement": "remaining binding at 2.8 µM", "setting": "NEK10", "value": 100, "unit": "%"}, {"measurement": "remaining binding at 2.8 µM", "setting": "CAMK1", "value": 97, "unit": "%"}, {"measurement": "remaining binding at 2.8 µM", "setting": "FES", "value": 95, "unit": "%"}, {"measurement": "remaining binding at 2.8 µM", "setting": "PAK1", "value": 92, "unit": "%"}, {"measurement": "remaining binding at 2.8 µM", "setting": "CHEK2", "value": 78, "unit": "%"}, {"measurement": "remaining binding at 2.8 µM", "setting": "SRMS", "value": 99, "unit": "%"}]}]}
